Data on 13 compounds can be found in patent US9669028B2, “Substituted 5-(pyrazin-2-yl)-1H-pyrazolo [3, 4-B] pyridine and pyrazolo [3, 4-B] pyridine derivatives as protein kinase inhibitors” (Arrien Pharmaceuticals LLC, priority 2011, dated 2017).

Common to all, as to type: biochemical
The target of one experiment is LRRK2 (Homo sapiens (Human), UniProt Q5S007). Briefly: LRRK2 Kinase Assay. Conditions: 10 μM ATP. The method, then: (§1) Briefly, specific kinase/substrate pairs along with required cofactors were prepared in reaction buffer; 20 mM Hepes (pH 7.5), 10 mM MgCl2, 1 mM EGTA, 0.02% Brij35, 0.02 mg/ml BSA, 0.1 mM Na3VO4, 2 mM DTT, 1% DMSO. Compounds were delivered into the reaction, followed ˜20 min later by addition of a mixture of ATP (Sigma) and 33P ATP (PerkinElmer) to a final concentration of 10 μM. […] IC50 values and curve fits were obtained using Prism (GraphPad Software). Kinome tree representations were prepared using Kinome Mapper (http://www.reactionbiology.com/apps/kinome/mapper/Launch Kinome.htm).
For the wild type LRRK the 2×LRRK2/ERM (LRRKtide) mixture was prepared in 50 mM Tris pH 8.5, 0.01% BRIJ-35, 10 mM MgCl2, 1 mM EGTA, 0.02% NaN3. […] After 1 hour Kinase Reaction incubation, 5 μL of Detection Mix was added.

For another experiment, the target named is DYRK1A (Homo sapiens (Human), UniProt Q13627). Put plainly: In vitro DYRK1A inhibition assay. As to the method:
as §1
The 2×DYRK1A/Ser/Thr 18 mixture was prepared in 50 mM HEPES pH 7.5, 0.01% BRIJ-35, 10 mM MgCl2, 1 mM EGTA.

Another experiment deals with LRRK2 G2019S (Homo sapiens (Human), UniProt Q5S007, G2019S). Briefly: LRRK2 G2019S Kinase Assay. The following applies: 10 μM ATP. The method, then: Procedure: Enzyme was incubated with substrate peptide in reaction buffer in the presence and absence of test compounds or Staurosporine. All additions were done on ice, followed by the addition of ATP mix. Wells were uniformly mixed using an Eppendorff plate shaker and incubated at 30° C. for 20 min, and stopped by the addition of 5 μl of 3% phosphoric acid. Volume was increased to 100 μl by adding 0.8% phosphoric acid which was then transferred to PC filter mats (Millipore), pre-equilibrated with 70% ethanol and water. Plates were washed thrice with 100 μl 0.8% phosphoric acid and dried for an hour at 60° C. 100 μl scintillation fluid was added into each well and reading taken in Perkin Elmer TOPCOUNT beta counter. […] A validation EC50 curve was generated by plotting CPM for each Staurosporine concentration on y-axis against the Log concentration of Staurosporine (nM) on the x-axis followed by a best fit curve through the points.
After 1 hour Kinase Reaction incubation, 5 μL of Detection Mix was added.

Broadly, the IC50 is the concentration needed to halve the response being measured. Higher therefore signals weaker potency in that assay.

LRRK2, sequence (Q5S007 970-2527): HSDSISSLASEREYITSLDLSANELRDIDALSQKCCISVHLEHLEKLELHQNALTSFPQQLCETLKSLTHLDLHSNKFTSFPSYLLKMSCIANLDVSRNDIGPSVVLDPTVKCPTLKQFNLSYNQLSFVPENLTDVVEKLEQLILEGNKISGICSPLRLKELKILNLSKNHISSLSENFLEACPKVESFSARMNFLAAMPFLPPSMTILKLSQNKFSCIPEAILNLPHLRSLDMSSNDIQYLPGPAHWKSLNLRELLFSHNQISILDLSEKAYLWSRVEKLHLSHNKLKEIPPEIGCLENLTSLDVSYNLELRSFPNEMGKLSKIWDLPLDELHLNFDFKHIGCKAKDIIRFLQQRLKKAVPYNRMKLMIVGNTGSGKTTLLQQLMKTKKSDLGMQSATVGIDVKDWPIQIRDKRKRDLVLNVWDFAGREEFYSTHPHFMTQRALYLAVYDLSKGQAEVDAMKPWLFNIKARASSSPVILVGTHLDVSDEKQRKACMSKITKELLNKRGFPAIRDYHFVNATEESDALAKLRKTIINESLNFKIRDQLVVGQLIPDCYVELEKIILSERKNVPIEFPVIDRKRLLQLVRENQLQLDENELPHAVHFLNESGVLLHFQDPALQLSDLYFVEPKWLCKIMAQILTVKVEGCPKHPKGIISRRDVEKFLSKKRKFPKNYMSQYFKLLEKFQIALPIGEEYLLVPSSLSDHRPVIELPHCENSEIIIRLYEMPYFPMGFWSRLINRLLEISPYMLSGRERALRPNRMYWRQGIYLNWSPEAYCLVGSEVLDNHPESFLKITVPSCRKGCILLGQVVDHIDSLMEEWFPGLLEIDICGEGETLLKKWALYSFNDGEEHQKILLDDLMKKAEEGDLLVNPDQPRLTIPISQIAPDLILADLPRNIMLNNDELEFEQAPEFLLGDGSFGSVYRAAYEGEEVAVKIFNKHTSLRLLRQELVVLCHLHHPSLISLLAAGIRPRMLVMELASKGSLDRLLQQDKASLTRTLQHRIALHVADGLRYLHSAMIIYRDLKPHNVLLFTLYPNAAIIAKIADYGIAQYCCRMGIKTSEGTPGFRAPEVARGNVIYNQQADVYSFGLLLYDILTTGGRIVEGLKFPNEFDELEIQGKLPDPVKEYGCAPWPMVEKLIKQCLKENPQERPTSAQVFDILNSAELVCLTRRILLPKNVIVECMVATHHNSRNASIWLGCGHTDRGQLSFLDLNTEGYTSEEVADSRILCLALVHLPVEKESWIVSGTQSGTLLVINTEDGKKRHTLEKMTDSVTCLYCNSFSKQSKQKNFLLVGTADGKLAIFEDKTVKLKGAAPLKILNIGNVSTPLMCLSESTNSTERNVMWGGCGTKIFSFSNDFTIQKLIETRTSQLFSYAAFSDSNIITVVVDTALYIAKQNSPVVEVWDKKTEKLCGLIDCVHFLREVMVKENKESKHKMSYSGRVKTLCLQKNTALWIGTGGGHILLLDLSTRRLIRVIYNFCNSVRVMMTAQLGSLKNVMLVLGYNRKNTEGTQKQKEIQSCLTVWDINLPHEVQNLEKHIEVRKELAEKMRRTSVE
LRRK2 G2019S, sequence (Q5S007 970-2527 G2019S): as the sequence (Q5S007 970-2527) above, with G1050S counted along it

For the compound `Cc1n[nH]c2ncc(-c3cccc(NC4CCN(C)CC4)c3)cc12` [Compound 98, 1-methyl-N-(3-(3-methyl-1H-pyrazolo[3,4-b]pyridin-5-yl)phenyl)piperidin-4-amine], the IC50 against LRRK2, at DYRK1A and at LRRK2 G2019S was more than 1000 nM each time.

As to `Cc1n[nH]c2ncc(-c3cccc(NC4CCN(C)CC4)n3)cc12` [Compound 102, 6-(3-methyl-1H-pyrazolo[3,4-b]pyridin-5-yl)-N-(1-methylpiperidin-4-yl)pyridin-2-amine], the IC50 at LRRK2, against DYRK1A and against LRRK2 G2019S was more than 500 nM each time.

With `Cc1n[nH]c2ncc(-c3cnn(C)c3)cc12` [Compound 108, 3-methyl-5-(1-methyl-1H-pyrazol-4-yl)-1H-pyrazolo[3,4-b]pyridine], the half-inhibitory concentration (IC50) against LRRK2, against DYRK1A and on LRRK2 G2019S was more than 500 nM in each case.

On to `CN1CCN(c2cncc(-c3cnc4[nH]ccc4c3)n2)CC1` [Compound 125, 5-(6-(4-methylpiperazin-1-yl)pyrazin-2-yl)-1H-pyrrolo[2,3-b]pyridine], for which the 50% inhibitory concentration (IC50) against LRRK2, on DYRK1A and against LRRK2 G2019S was less than 500 nM in each case.

In the case of `OCCN1CCN(c2cncc(-c3cnc4[nH]ccc4c3)n2)CC1` [Compound 126, 2-(4-(6-(1H-pyrrolo[2,3-b]pyridin-5-yl)pyrazin-2-yl)piperazin-1-yl)ethanol], the half-inhibitory concentration (IC50) on LRRK2, at DYRK1A and against LRRK2 G2019S was less than 500 nM in each case.

As to `CN(C)CCNc1cncc(-c2cnc3[nH]ccc3c2)n1` [Compound 127, N1-(6-(1H-pyrrolo[2,3-b]pyridin-5-yl)pyrazin-2-yl)-N2,N2-dimethylethane-1,2-diamine], the IC50 against LRRK2, on DYRK1A and against LRRK2 G2019S was more than 500 nM each time.

Consider `c1cnc(N2CCCC2)c(-c2cnc3[nH]ccc3c2)n1` [Compound 128, 5-(3-(pyrrolidin-1-yl)pyrazin-2-yl)-1H-pyrrolo[2,3-b]pyridine], for which the IC50 against LRRK2, against DYRK1A and on LRRK2 G2019S was more than 500 nM throughout.

On to `O=C1CCCN1c1cncc(-c2cnc3[nH]ccc3c2)n1` [Compound 131, 1-(6-(1H-pyrrolo[2,3-b]pyridin-5-yl)pyrazin-2-yl)pyrrolidin-2-one], for which the IC50 against LRRK2, against DYRK1A and against LRRK2 G2019S was more than 500 nM in each case.

As for `FC1(F)CCN(c2cncc(-c3cnc4[nH]ccc4c3)n2)C1` [Compound 135, 5-(6-(3,3-difluoropyrrolidin-1-yl)pyrazin-2-yl)-1H-pyrrolo[2,3-b]pyridine], the IC50 against LRRK2, against DYRK1A and against LRRK2 G2019S was more than 500 nM throughout.

As for `OC1CCN(c2cncc(-c3cnc4[nH]ccc4c3)n2)CC1` [Compound 137, 1-(6-(1H-pyrrolo[2,3-b]pyridin-5-yl)pyrazin-2-yl)piperidin-4-ol], the IC50 at LRRK2, against DYRK1A and against LRRK2 G2019S was less than 500 nM each time.

On to `CN(CC1CCOCC1)c1cncc(-c2cnc3[nH]ccc3c2)n1` [Compound 143, N-methyl-6-(1H-pyrrolo[2,3-b]pyridin-5-yl)-N-((tetrahydro-2H-pyran-4-yl)methyl)pyrazin-2-amine], for which the IC50 against LRRK2, at DYRK1A and on LRRK2 G2019S was less than 500 nM throughout.

Consider `CN(CC1CCOCC1)c1cncc(-c2cnc3[nH]cc(Cl)c3c2)n1` [Compound 144, 6-(3-chloro-1H-pyrrolo[2,3-b]pyridin-5-yl)-N-methyl-N-((tetrahydro-2H-pyran-4-yl)methyl)pyrazin-2-amine], for which the IC50 at LRRK2, against DYRK1A and at LRRK2 G2019S was less than 500 nM each time.

In the case of `CN(CC1CCOCC1)c1cncc(-c2cnc3[nH]cc(F)c3c2)n1` [Compound 145, 6-(3-fluoro-1H-pyrrolo[2,3-b]pyridin-5-yl)-N-methyl-N-((tetrahydro-2H-pyran-4-yl)methyl)pyrazin-2-amine], the IC50 against LRRK2, at DYRK1A and on LRRK2 G2019S was less than 500 nM each time.
